Experiment: xn = mol fraction of the nth substance listed
Conditions: Liquid

Cc1ccccc1 [toluene] + CCCO
mass density [kg/m3]
Conditions	100 kPa	5000 kPa	10000 kPa	15000 kPa	20000 kPa	25000 kPa	30000 kPa
303.15 K, x2 = 0	857.4	861.3	865.1	868.7	872.3	875.6	878.9
303.15 K, x2 = 0.2	847.5	851.5	855.3	859	862.5	865.9	869.2
303.15 K, x2 = 0.4	837.2	841.2	845	848.7	852.2	855.7	858.9
303.15 K, x2 = 0.6	825.9	829.9	833.7	837.4	840.9	844.3	847.5
303.15 K, x2 = 0.8	812.4	816.4	820.2	823.8	827.3	830.7	834
313.15 K, x2 = 0	848.1	852.1	856.2	860	863.7	867.2	870.7
313.15 K, x2 = 0.2	838.1	842.2	846.3	850.2	853.9	857.5	860.9
313.15 K, x2 = 0.4	828	832	836.1	840	843.7	847.3	850.7
313.15 K, x2 = 0.6	816.9	821	825	828.9	832.6	836.1	839.5
313.15 K, x2 = 0.8	803.8	807.8	811.9	815.8	819.4	823	826.3
323.15 K, x2 = 0	838.6	842.9	847.2	851.2	855.1	858.9	862.5
323.15 K, x2 = 0.2	828.5	832.9	837.2	841.3	845.2	849	852.6
323.15 K, x2 = 0.4	818.3	822.7	827	831.1	835	838.8	842.4
323.15 K, x2 = 0.6	807.4	811.8	816.1	820.2	824.1	827.9	831.5
323.15 K, x2 = 0.8	794.7	799.1	803.4	807.4	811.3	815	818.6
333.15 K, x2 = 0	829.2	833.7	838.2	842.5	846.6	850.5	854.3
333.15 K, x2 = 0.2	818.7	823.3	827.9	832.3	836.4	840.4	844.2
333.15 K, x2 = 0.4	808.5	813.1	817.8	822.1	826.3	830.3	834.1
333.15 K, x2 = 0.6	797.9	802.5	807.1	811.4	815.6	819.5	823.3
333.15 K, x2 = 0.8	785.6	790.2	794.7	799	803.1	807	810.8

From the NIST ThermoML archive (doi:10.1021/je049685z)
